# The source made the active and inactive calls.
# How the values were obtained:
# [1] = biological target: Mu-type opioid receptor (Homo sapiens, UniProt P35372); type: functional, cell-based;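 note: U2OS cells with beta-arrestin recruitment to OPRM1 by beta-gal complementation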
# [2] = biological target: 5-hydroxytryptamine receptor 2A (Mus musculus, UniProt P35363); type: functional, cell-based;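 note: CHO-K1 cells with tagged receptor and beta-arrestin; agonist potency measured as compound-induced activation of the receptor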
# Sequence of 5-hydroxytryptamine receptor 2A (P35363 whole entry): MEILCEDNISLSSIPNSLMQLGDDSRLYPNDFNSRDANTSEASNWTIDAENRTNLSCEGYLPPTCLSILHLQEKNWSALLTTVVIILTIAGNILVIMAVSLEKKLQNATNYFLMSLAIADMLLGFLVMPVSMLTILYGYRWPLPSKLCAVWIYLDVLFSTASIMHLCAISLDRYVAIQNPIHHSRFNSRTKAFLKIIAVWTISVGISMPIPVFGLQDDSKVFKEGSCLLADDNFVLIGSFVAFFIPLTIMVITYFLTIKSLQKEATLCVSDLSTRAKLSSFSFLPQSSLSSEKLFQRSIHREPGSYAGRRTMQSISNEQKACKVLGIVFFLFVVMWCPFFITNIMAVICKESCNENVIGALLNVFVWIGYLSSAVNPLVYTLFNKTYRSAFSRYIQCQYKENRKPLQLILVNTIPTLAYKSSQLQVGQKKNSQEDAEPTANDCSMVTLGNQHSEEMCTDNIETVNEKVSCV
# [3] = biological target: T1, Rac GTPase-activating protein 1 (Homo sapiens, UniProt Q9H0H5); test: blockers of MgcRacGAP-driven Rac1 GTP hydrolysis – biochemical, ADP Hunter fluorescence, primary and confirmatory, confirmation (AID 624330); type: functional
# T1 sequence (Q9H0H5 whole entry): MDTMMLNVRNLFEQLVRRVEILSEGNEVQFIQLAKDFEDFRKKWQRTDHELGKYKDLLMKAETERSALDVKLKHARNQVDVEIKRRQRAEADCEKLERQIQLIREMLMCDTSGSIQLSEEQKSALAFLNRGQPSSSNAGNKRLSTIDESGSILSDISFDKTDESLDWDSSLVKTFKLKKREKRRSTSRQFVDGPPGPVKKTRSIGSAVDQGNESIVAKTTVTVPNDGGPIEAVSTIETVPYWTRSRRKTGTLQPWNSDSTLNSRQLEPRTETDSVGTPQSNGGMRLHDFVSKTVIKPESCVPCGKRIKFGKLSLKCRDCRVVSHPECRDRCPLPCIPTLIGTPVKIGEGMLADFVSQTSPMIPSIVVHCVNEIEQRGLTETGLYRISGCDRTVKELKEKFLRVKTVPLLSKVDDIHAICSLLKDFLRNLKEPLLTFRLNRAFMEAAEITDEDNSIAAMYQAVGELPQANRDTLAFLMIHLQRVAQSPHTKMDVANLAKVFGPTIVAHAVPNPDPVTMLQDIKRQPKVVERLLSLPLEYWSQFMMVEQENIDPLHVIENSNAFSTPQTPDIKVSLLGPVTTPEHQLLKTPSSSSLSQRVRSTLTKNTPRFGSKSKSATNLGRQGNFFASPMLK
# [4] = viability loss in HeLa cells – cytotoxicity control for MgcRacGAP inhibitor project, dose response (AID 624300); type: functional
# [5] = viability of uninfected HEp-2 cells – cell-based, HTS, cytotoxicity control for RSV inhibitor project, dose response (AID 2410); type: functional; conditions: human respiratory syncytial virus
# [6] = microbe, parasite or virus in culture; type: functional; conditions: Mycobacterium tuberculosis
# [7] = reduction of Shn3 3'UTR-driven luciferase in osteoblasts – cell-based, Clone20 osteoblasts, firefly luciferase, cherry-picked, dose response (AID 624132); type: functional;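 note: firefly luciferase luminescence from reporter carrying the Shn3 3'UTR in osteoblasts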
# [8] = off-target signal loss in HeLa-CEM21 co-culture – HeLa F-luc CTL cells, cherry-picked, counter-screen for HIV-1 Env fusion inhibitor project, dose response (AID 652040); type: functional, cell-based;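 note: potency for signal decrease marking cytotoxic or nonspecific inhibition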
# [9] = loss of viability in HepG2 cells – cell-based, CellTiter-Glo, cherry-picked, cytotoxicity control for Shn3 inhibitor project, dose response (AID 624134); type: functional
# [10] = HIV-1 AD8 envelope cell-cell fusion blockers – cherry-pick, dose response (AID 652062); type: functional, cell-based;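 note: luciferase signal from cell-cell fusion driven by HIV-1 clade B AD8 Env; potency is for inhibitors of fusion seen as a drop in luminescence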
# [11] = blockers of HIV-1 envelope-mediated cell-cell fusion – cherry-pick, dose response (AID 652057); type: functional, cell-based
# [12] = viability loss in CEM21 cells – cell-based, CellTiter-Glo luminescence, cherry-picked, cytotoxicity control for viral fusion inhibitor project, dose response (AID 652042); type: functional;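 note: potency for signal decrease meaning cytotoxicity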
# [13] = non-specific 3'UTR reporter inhibition in Clone20-Shn3RL – cell-based, Renilla luciferase, cherry-picked, counter-screen for Shn3 inhibitor project, dose response (AID 624133); type: functional
# [14] = biological target: Genome polyprotein (dengue virus type 2, UniProt P29990); test: flavivirus cap methylation enzyme inhibition – biochemical, confirmation dose response, primary screen (AID 588689); type: functional
# Sequence of Genome polyprotein (P29990 2492-3391 limits assumed): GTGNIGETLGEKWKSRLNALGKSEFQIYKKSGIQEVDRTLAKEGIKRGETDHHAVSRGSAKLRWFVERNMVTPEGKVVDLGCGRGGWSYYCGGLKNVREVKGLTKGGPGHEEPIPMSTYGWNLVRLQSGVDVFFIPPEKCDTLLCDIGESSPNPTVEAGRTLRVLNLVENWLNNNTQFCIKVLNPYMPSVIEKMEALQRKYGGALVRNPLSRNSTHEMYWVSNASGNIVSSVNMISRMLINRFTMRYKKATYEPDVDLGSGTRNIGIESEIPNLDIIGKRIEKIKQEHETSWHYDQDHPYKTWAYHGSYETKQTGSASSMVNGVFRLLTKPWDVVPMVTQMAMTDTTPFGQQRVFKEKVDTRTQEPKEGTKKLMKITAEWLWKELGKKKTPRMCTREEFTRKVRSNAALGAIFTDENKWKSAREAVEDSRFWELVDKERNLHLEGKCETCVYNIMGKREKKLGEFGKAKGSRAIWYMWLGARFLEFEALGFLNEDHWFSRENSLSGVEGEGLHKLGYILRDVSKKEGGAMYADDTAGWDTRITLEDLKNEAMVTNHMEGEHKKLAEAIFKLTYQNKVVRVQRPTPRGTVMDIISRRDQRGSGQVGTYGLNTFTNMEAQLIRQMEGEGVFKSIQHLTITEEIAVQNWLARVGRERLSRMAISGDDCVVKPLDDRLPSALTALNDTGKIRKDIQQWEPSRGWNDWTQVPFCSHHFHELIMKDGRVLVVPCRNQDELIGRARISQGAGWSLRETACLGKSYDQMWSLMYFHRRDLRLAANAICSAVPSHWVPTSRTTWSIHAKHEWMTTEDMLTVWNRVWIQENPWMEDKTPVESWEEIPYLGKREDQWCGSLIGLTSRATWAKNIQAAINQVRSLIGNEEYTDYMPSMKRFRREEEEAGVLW
# [15] = biological target: T2, Sentrin-specific protease 8 (Homo sapiens, UniProt Q96LD8); type: functional
# T2 sequence (Q96LD8 whole entry): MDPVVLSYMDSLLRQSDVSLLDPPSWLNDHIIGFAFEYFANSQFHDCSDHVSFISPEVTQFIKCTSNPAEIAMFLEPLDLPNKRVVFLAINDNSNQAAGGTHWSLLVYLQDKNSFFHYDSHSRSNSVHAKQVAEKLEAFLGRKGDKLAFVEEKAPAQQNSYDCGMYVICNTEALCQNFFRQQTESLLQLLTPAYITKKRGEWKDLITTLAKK
# [16] = biological target: T3, Apoptotic protease-activating factor 1 (Homo sapiens, UniProt O14727); type: functional
# T3 sequence (O14727 whole entry): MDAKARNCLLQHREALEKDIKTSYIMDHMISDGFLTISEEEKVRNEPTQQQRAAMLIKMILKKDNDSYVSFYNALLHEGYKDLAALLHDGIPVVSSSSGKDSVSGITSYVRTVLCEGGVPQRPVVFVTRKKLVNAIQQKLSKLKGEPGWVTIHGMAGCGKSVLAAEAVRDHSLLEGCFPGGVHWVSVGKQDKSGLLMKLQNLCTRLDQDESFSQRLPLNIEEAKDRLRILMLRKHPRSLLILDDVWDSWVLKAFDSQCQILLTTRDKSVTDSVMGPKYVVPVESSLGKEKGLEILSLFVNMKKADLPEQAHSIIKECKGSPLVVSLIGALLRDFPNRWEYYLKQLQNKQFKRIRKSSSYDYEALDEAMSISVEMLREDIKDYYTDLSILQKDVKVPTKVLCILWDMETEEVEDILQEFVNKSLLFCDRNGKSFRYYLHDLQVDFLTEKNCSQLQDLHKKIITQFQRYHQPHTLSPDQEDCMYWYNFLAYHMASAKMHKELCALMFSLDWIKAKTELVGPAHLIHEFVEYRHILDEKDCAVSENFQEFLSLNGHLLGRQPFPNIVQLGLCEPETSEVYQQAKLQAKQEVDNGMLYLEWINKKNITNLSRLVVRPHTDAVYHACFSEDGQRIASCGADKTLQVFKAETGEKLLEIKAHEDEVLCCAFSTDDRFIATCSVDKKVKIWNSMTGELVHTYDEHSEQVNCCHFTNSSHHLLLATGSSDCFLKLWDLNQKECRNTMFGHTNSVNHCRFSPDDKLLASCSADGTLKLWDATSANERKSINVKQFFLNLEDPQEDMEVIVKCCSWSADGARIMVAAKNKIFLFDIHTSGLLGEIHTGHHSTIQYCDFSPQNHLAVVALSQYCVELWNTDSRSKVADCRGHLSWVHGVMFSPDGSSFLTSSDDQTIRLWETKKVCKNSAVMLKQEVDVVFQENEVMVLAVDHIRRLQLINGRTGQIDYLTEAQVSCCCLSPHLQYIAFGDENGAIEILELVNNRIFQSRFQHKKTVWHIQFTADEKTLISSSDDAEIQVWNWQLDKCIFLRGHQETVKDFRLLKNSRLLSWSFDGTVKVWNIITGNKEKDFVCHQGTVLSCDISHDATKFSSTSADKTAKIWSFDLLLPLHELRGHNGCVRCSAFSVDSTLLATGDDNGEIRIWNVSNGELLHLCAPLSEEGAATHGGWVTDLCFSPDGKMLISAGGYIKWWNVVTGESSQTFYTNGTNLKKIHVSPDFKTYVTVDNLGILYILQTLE
# [17] = biological target: T4, Replicative DNA helicase DnaB (Mycobacterium tuberculosis, UniProt P9WMR3); test: DnaB intein splicing inhibitors, dose response, biochemical, cell-free fluorescence (AID 449749); type: functional
# T4 sequence (P9WMR3 whole entry): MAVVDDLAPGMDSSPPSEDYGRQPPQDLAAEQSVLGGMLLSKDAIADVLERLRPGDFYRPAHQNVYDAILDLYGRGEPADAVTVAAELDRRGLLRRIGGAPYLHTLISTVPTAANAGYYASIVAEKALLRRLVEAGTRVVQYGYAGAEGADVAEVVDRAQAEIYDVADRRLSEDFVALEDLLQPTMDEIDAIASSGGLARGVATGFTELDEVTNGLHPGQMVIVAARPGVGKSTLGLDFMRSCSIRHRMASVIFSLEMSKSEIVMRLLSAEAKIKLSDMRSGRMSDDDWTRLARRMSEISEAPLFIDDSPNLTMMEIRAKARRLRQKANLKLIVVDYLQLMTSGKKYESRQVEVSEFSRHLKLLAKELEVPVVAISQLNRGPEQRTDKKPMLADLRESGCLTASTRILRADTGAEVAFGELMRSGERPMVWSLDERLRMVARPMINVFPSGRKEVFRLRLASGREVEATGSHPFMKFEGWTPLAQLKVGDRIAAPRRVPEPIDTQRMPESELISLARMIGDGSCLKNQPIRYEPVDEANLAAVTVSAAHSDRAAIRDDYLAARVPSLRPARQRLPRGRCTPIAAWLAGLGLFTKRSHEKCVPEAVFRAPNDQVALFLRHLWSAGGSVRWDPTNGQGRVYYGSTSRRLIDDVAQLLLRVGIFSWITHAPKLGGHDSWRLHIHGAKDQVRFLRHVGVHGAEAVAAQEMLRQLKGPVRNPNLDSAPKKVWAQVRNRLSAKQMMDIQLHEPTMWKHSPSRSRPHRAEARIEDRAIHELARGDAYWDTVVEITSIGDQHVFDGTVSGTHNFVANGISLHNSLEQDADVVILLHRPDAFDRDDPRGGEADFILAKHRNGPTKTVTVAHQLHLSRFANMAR
# [18] = biological target: T2, Sentrin-specific protease 8; type: functional; remark: listed apart in the source
# [19] = biological target: T5, Protein RecA (Mycobacterium tuberculosis, UniProt P9WHJ3); test: Fluorescence Cell-Free Homogeneous Dose Retest to Identify Inhibitors of RecA-Intein Splicing Activity. [Related pubchem assays (depositor defined):AID2097, AID2223, AID489010, AID492950]; type: functional
# T5 sequence (P9WHJ3 whole entry): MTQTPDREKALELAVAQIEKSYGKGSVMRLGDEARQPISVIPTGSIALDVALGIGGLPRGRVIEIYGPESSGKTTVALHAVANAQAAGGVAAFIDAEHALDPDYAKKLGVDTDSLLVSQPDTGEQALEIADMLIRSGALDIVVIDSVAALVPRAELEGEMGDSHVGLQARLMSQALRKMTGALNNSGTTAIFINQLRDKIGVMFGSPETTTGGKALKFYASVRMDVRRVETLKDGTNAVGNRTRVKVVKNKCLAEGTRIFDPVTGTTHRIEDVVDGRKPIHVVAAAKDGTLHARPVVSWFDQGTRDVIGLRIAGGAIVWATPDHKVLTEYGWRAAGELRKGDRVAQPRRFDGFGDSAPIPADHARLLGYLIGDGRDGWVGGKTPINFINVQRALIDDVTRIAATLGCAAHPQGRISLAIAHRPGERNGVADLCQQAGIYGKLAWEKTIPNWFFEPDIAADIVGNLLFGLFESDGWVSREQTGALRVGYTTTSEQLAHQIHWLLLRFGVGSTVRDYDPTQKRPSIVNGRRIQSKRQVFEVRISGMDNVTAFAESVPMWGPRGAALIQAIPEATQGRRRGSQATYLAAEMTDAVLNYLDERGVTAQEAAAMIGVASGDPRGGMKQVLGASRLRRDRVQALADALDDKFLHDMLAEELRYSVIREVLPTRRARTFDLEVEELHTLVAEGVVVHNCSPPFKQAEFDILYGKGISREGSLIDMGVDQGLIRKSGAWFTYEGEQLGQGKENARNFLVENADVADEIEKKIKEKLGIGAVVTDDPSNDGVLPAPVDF
# Sequence of Mu-type opioid receptor (P35372 whole entry): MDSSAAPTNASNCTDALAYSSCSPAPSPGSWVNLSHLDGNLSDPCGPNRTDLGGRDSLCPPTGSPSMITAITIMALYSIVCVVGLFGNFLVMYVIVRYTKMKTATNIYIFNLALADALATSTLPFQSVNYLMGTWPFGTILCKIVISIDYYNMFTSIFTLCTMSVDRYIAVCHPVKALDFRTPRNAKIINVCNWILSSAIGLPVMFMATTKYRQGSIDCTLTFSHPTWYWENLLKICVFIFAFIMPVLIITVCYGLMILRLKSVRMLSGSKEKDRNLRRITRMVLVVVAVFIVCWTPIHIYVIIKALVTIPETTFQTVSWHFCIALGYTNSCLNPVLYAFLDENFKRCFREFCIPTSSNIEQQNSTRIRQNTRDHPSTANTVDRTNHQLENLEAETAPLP
smiles,measurement,setting,value
C=CCN1CCc2c(cc(O)c(O)c2Br)[C@@H](c2ccccc2)C1,EC50,[1],92.5 µM (inactive)
same,EC50,[2],0.0982 µM (active)
CCN(CCNCC(O)COc1ccccc1C(C)C)c1cccc(C)c1 (stereo not drawn),IC50,[3],66.7 µM (active)
same,CC50,[4],36.1 µM (active)
same,CC50,[5],20 µM (active)
same,CC50,[6],14.2 µM (active)
c1nc2nc[nH]c(N3CCN(Cc4ccc5c(c4)OCO5)CC3)c-2n1,EC50,[1],92.5 µM (inactive)
same,EC50,[2],0.59 µM (active)
FC(F)(F)c1nc(-c2cccs2)ncc1-c1nnnn1-c1ccc(Cl)cc1,AC50,[7],2.1 µM (active)
same,AC50,[8],29 µM (active)
same,AC50,[9],29.1 µM (active)
same,AC50,[10],2.87 µM (active)
same,AC50,[11],42.6 µM (active)
same,AC50,[12],23 µM (active)
same,AC50,[13],1.9 µM (active)
Cc1n[nH]c(O)c1C(c1ccc(-c2cccc(Cl)c2)o1)c1c(C)n[nH]c1O,IC50,[14],56.5 µM (active)
same,IC50,[15],3.19 µM (active)
same,IC50,[16],17.4 µM (active)
same,AC50,[17],> 380 µM (inactive)
same,IC50,[18],2.19 µM (active)
same,EC50,[19],66.2 µM (active)
O=C1NC[C@H](Cc2ccccc2)N(C[C@H]2CCCN2C[C@H](Cc2ccc(O)cc2)N2C[C@H](Cc3ccc(O)cc3)N(CC3CCCCCC3)C(=O)C2=O)C1=O,EC50,[1],92.5 µM (inactive)
same,EC50,[2],4.46 µM (active)

# Reference: ChEMBL document CHEMBL1201862, “PubChem BioAssay data set” (2004)
